Test results taken from PubChem BioAssay (NCI).
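Test compounds were applied to cells in 96-well plates for 48 hours at 5 doses. Abbreviation: GI50, concentration required for 50% inhibition of growth. TGI: total growth inhibition.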

Key:
Assay in all cases: inhibition of tumour cell growth, NCI panel, 48 h
786-0 renal = system: 786-0 renal
A498 renal = system: A498 renal
A549 NSCLC = system: A549 NSCLC
ACHN renal = system: ACHN renal
BT-549 breast = system: BT-549 breast
CAKI-1 renal = system: CAKI-1 renal
CCRF-CEM leukemia = system: CCRF-CEM leukemia
COLO 205 colon = system: COLO 205 colon
DU-145 prostate = system: DU-145 prostate
EKVX NSCLC = system: EKVX NSCLC
HCC-2998 colon = system: HCC-2998 colon
HCT-116 colon = system: HCT-116 colon
HCT-15 colon = system: HCT-15 colon
HL-60(TB) leukemia = system: HL-60(TB) leukemia
HOP-62 NSCLC = system: HOP-62 NSCLC
HOP-92 NSCLC = system: HOP-92 NSCLC
HS 578T breast = system: HS 578T breast
HT29 colon = system: HT29 colon
IGROV1 ovarian = system: IGROV1 ovarian
K-562 leukemia = system: K-562 leukemia
KM12 colon = system: KM12 colon
LOX IMVI melanoma = system: LOX IMVI melanoma
M14 melanoma = system: M14 melanoma
MALME-3M melanoma = system: MALME-3M melanoma
MCF7 breast = system: MCF7 breast
MDA-MB-231 breast = system: MDA-MB-231 breast
MDA-MB-435 = system: MDA-MB-435
MOLT-4 leukemia = system: MOLT-4 leukemia
NCI-H226 lung = system: NCI-H226 lung
NCI-H23 lung = system: NCI-H23 lung
NCI-H460 lung = system: NCI-H460 lung
NCI-H522 lung = system: NCI-H522 lung
NCI/ADR-RES ovarian = system: NCI/ADR-RES ovarian
OVCAR-3 ovarian = system: OVCAR-3 ovarian
OVCAR-4 ovarian = system: OVCAR-4 ovarian
OVCAR-5 ovarian = system: OVCAR-5 ovarian
OVCAR-8 ovarian = system: OVCAR-8 ovarian
PC-3 prostate = system: PC-3 prostate
RPMI-8226 leukemia = system: RPMI-8226 leukemia
RXF 393 renal = system: RXF 393 renal
SF-268 CNS = system: SF-268 CNS
SF-295 CNS = system: SF-295 CNS
SF-539 CNS = system: SF-539 CNS
SK-MEL-2 melanoma = system: SK-MEL-2 melanoma
SK-MEL-28 melanoma = system: SK-MEL-28 melanoma
SK-MEL-5 melanoma = system: SK-MEL-5 melanoma
SK-OV-3 ovarian = system: SK-OV-3 ovarian
SN12C renal = system: SN12C renal
SNB-19 CNS = system: SNB-19 CNS
SNB-75 CNS = system: SNB-75 CNS
SR leukemia = system: SR leukemia
SW-620 colon = system: SW-620 colon
T-47D breast = system: T-47D breast
TK-10 renal = system: TK-10 renal
U251 CNS = system: U251 CNS
UACC-257 melanoma = system: UACC-257 melanoma
UACC-62 melanoma = system: UACC-62 melanoma
UO-31 renal = system: UO-31 renal

Question: What does the source list for `Cc1ccc(CN(C)c2ccc(CO)c(Cl)c2)cc1`?
Answer: GI50 (786-0 renal): 11.8 µM; TGI (786-0 renal): 31.9 µM; GI50 (A498 renal): 0.056 µM; TGI (A498 renal): 0.196 µM; GI50 (A549 NSCLC): 3.69 µM; TGI (A549 NSCLC): 27.7 µM; GI50 (ACHN renal): 23.6 µM; TGI (ACHN renal): > 100 µM; GI50 (BT-549 breast): 13.2 µM; TGI (BT-549 breast): 37 µM; GI50 (CAKI-1 renal): 2.4 µM; TGI (CAKI-1 renal): 45.8 µM; GI50 (CCRF-CEM leukemia): 33.7 µM; TGI (CCRF-CEM leukemia): > 100 µM; GI50 (COLO 205 colon): 3.24 µM; TGI (COLO 205 colon): 10.5 µM; GI50 (DU-145 prostate): 22.6 µM; TGI (DU-145 prostate): > 100 µM; GI50 (EKVX NSCLC): 18.6 µM; TGI (EKVX NSCLC): 79.7 µM; GI50 (HCC-2998 colon): 13.9 µM; TGI (HCC-2998 colon): > 60.6 µM; GI50 (HCT-116 colon): 0.395 µM; TGI (HCT-116 colon): 11.6 µM; GI50 (HCT-15 colon): 13.4 µM; TGI (HCT-15 colon): > 100 µM; GI50 (HL-60(TB) leukemia): 15.1 µM; TGI (HL-60(TB) leukemia): 56 µM; GI50 (HOP-62 NSCLC): 3.44 µM; TGI (HOP-62 NSCLC): 29.9 µM; GI50 (HOP-92 NSCLC): 1.98 µM; TGI (HOP-92 NSCLC): 36.7 µM; GI50 (HS 578T breast): 26.2 µM; TGI (HS 578T breast): > 100 µM; GI50 (HT29 colon): 6.07 µM; TGI (HT29 colon): 30 µM; GI50 (IGROV1 ovarian): 0.363 µM; TGI (IGROV1 ovarian): 2.52 µM; GI50 (K-562 leukemia): 6.05 µM; TGI (K-562 leukemia): > 100 µM; GI50 (KM12 colon): 21.3 µM; TGI (KM12 colon): 72 µM; GI50 (LOX IMVI melanoma): 17.9 µM; TGI (LOX IMVI melanoma): > 52.7 µM; GI50 (M14 melanoma): 20.9 µM; TGI (M14 melanoma): > 65.1 µM; GI50 (MALME-3M melanoma): 19.7 µM; TGI (MALME-3M melanoma): 59 µM; GI50 (MCF7 breast): 0.676 µM; TGI (MCF7 breast): 12 µM; GI50 (MDA-MB-231 breast): 21.9 µM; TGI (MDA-MB-231 breast): > 100 µM; GI50 (MDA-MB-435): 29.8 µM; TGI (MDA-MB-435): > 100 µM; GI50 (MOLT-4 leukemia): 25.4 µM; TGI (MOLT-4 leukemia): > 79.7 µM; GI50 (NCI-H226 lung): 0.119 µM; TGI (NCI-H226 lung): 0.257 µM; GI50 (NCI-H23 lung): 12.6 µM; TGI (NCI-H23 lung): > 80 µM; GI50 (NCI-H460 lung): 1.17 µM; TGI (NCI-H460 lung): 11.5 µM; GI50 (NCI-H522 lung): 17.2 µM; TGI (NCI-H522 lung): 65.6 µM; GI50 (NCI/ADR-RES ovarian): 16.1 µM; TGI (NCI/ADR-RES ovarian): 63.2 µM; GI50 (OVCAR-3 ovarian): 3.06 µM; TGI (OVCAR-3 ovarian): 12.5 µM; GI50 (OVCAR-4 ovarian): 1.52 µM; TGI (OVCAR-4 ovarian): 13.7 µM; GI50 (OVCAR-5 ovarian): 0.446 µM; TGI (OVCAR-5 ovarian): 2.48 µM; GI50 (OVCAR-8 ovarian): 14.3 µM; TGI (OVCAR-8 ovarian): > 80.1 µM; GI50 (PC-3 prostate): 24.2 µM; TGI (PC-3 prostate): 97.5 µM; GI50 (RPMI-8226 leukemia): 10.2 µM; TGI (RPMI-8226 leukemia): > 65.2 µM; GI50 (RXF 393 renal): 6.9 µM; TGI (RXF 393 renal): 26.5 µM; GI50 (SF-268 CNS): 30.8 µM; TGI (SF-268 CNS): > 100 µM; GI50 (SF-295 CNS): 3.37 µM; TGI (SF-295 CNS): > 76 µM; GI50 (SF-539 CNS): 30 µM; TGI (SF-539 CNS): > 94.1 µM; GI50 (SK-MEL-2 melanoma): 8.26 µM; TGI (SK-MEL-2 melanoma): 31 µM; GI50 (SK-MEL-28 melanoma): 15.6 µM; TGI (SK-MEL-28 melanoma): 53.6 µM; GI50 (SK-MEL-5 melanoma): 5.44 µM; TGI (SK-MEL-5 melanoma): 18 µM; GI50 (SK-OV-3 ovarian): 5.8 µM; TGI (SK-OV-3 ovarian): 30.3 µM; GI50 (SN12C renal): 14 µM; TGI (SN12C renal): 49.5 µM; GI50 (SNB-19 CNS): 34.8 µM; TGI (SNB-19 CNS): > 100 µM; GI50 (SNB-75 CNS): 17.2 µM; TGI (SNB-75 CNS): 78.2 µM; GI50 (SR leukemia): 23.7 µM; TGI (SR leukemia): > 86.8 µM; GI50 (SW-620 colon): 5.23 µM; TGI (SW-620 colon): > 100 µM; GI50 (T-47D breast): 0.367 µM; TGI (T-47D breast): 2.4 µM; GI50 (TK-10 renal): 0.194 µM; TGI (TK-10 renal): 0.938 µM; GI50 (U251 CNS): 3.92 µM; TGI (U251 CNS): 39.9 µM; GI50 (UACC-257 melanoma): 0.344 µM; TGI (UACC-257 melanoma): 1.31 µM; GI50 (UACC-62 melanoma): 0.282 µM; TGI (UACC-62 melanoma): 2.71 µM; GI50 (UO-31 renal): 6.54 µM; TGI (UO-31 renal): 75.9 µM
